# From PubChem BioAssay AID2305 (GlaxoSmithKline (GSK), 2010)
# Tested on: P. falciparum 3D7 growth, pLDH absorbance
# Assay: P. falciparum 3D7 growth inhibition, dose response, strain 3D7 (AID 2305)
row,Compound,IC50
1,CC(C)NCC(=O)Nc1cccc(C(=O)Nc2cccc(C(F)(F)F)c2)c1,270 nM
2,Cc1cccc2[nH]c(-c3cccc(-c4ccc(NC(=O)c5ccoc5)cc4)c3)nc12,700 nM
3,COCCNCc1ccc(-c2ccc(CN(C(=O)NC3CCCCC3)C3CCN(Cc4ccccc4)CC3)cc2)cc1,960 nM
4,COc1ccc(CNC2CCN(c3ccc(NC(=O)c4cccc(Cl)c4)cc3)CC2)cc1OC,1020 nM
5,Cc1ccccc1N1CCN(c2ccc(C(=O)Nc3ccccc3)cc2)CC1,720 nM
6,Fc1ccc2nc(-c3ccc(-c4ccc(CNCC5CCCO5)cc4)cc3)[nH]c2c1 (configuration not stated),440 nM
7,CCOC(=O)NCCSC(C)(C)[C@H](NC(=O)[C@H](Cc1cc2ccccc2s1)[C@H](CC)N(O)C=O)C(=O)Nc1nccs1,300 nM
8,CCCCC(=O)N(CCOC)Cc1ccc(-c2ccc(CNCCC)cn2)cc1,730 nM
9,NC(=O)C1CCN(Cc2ccc(-c3ccc(-c4nc5ccc(F)cc5[nH]4)cc3)cc2)CC1,810 nM
10,CC(C)CC(NC(=O)c1cc2ccccc2s1)C(=O)N1CCCCCC1c1ccc(C(C)(C)C)cc1 (configuration not stated),860 nM
11,CC(C)Cc1cn(-c2nc(C(=N)N)cs2)c2cc(Cl)ccc12,150 nM
12,CCCCOc1cc(CNCCCCCCNCc2cc(OCCCC)cc3ccccc23)c2ccccc2c1,740 nM
13,CCN(CC)CCOc1ccc(C(O)(C#CC(O)(c2ccc(Br)cc2)c2ccc(OCCN(CC)CC)cc2)c2ccc(Br)cc2)cc1 (configuration not stated),620 nM
14,COc1cccc(NC(=O)Nc2cc(-c3ccc4[nH]ncc4c3)cc3c2CNC3=O)c1,120 nM
15,Cn1ccnc1-c1nc2ccccn2c1NCC(=O)Nc1ccccc1N1CCCCC1,980 nM
16,CN(C)c1cccc(-c2cnc3ccc(NCc4cccc(Cl)c4)nn23)c1,700 nM
17,FC(F)(F)c1ccc2nccc(NCc3ccccc3)c2c1,1150 nM
18,CCOc1cc(C(=O)N[C@@H](Cc2ccccc2)[C@H](O)CNCc2cc(OC)cc(OC)c2)cc(N2CCCCS2(=O)=O)c1,520 nM
19,Cn1cnc2c(Nc3ccncc3)nc(-c3ccc4ccccc4c3)nc21,870 nM
20,COc1cc(C(=O)NC2CCN(Cc3ccccc3)CC2)ccc1-c1nc2cc(Cl)c(Cl)cc2[nH]1,520 nM
21,CCc1cc2c(=O)c(-c3nc(C)cs3)c([C@H](N)Cc3ccc(O)cc3)oc2cc1O,900 nM
22,CNCCNc1nccc(N2CCc3ncnc(Nc4ccc(OCc5cccc(F)c5)c(Cl)c4)c3C2)n1,200 nM
23,C1=CN(Cc2ccccc2)C=CC1=C1C=Nc2ccccc21,760 nM

row,Compound,IC50
1,COCCN1CCC(C(=O)NCC(C)(C)c2nc(-c3ccc(Br)c(O)c3)c(-c3ccncc3)[nH]2)CC1,910 nM
2,COc1ccc(CNc2ncnc3c2[nH]c2ccc(F)cc23)cc1,980 nM
3,CN(C)CCOc1ccc(NC(=O)Nc2ccnc3c(Br)cccc23)cc1Cl,840 nM
4,O=C(N[C@@H](Cc1ccccc1)C(=O)NC1CCCCCC1)c1ccc(O)c(-c2ccc(Cl)c(Cl)c2)c1,330 nM
5,COc1ccc(-c2cccc(NC(=O)c3ccc(Cl)cc3)c2)cc1CN(C)CCN(C)C,780 nM
6,CCN(CC)CCCNc1nccc(N2CCc3ncnc(Nc4ccc(OCc5cccc(F)c5)c(Cl)c4)c3C2)n1,110 nM
7,COc1ccc(-c2nc(NC(=O)CS(=O)(=O)c3ccc(C)cc3)sc2C)cc1,400 nM
8,CCCNCc1ccc(-c2ccc(CN(CCOC)C(=O)c3nn(-c4ccccc4)nc3C)cc2)nc1,730 nM
9,COc1ccc2c(OC)ccc(CNCCCCCCNCc3ccc(OC)c4ccc(OC)cc34)c2c1,400 nM
10,NC(N)=Nc1nc(-c2cccc(NCCCCCCCCON3C(N)=NC(N)=NC34CCCCC4)c2)cs1,230 nM
11,Cn1c(N)c(C(=O)CSc2nnc(-c3cccs3)n2Cc2ccccc2)c(=O)n(C)c1=O,790 nM
12,CC[C@H]1CN2CC[C@H]1C[C@H]2[C@H](O)c1cc(-c2ccc3ccccc3c2)nc2ccc(OC)cc12,100 nM
13,CC(CN(C)C)C(=O)Nc1ccc(-c2ccc(-c3nc4ccc(C(F)(F)F)cc4[nH]3)cc2)cc1 (configuration not stated),750 nM
14,Cc1cc(=O)c(-c2ccc(Oc3ccc(Cl)cc3Cl)cc2)c(C)[nH]1,840 nM
15,COc1cc(OC)cc(-c2nnc(Sc3ccc(C#N)c([N+](=O)[O-])c3)n2C)c1,940 nM
16,CC(C)(C)S[C@H]1S[C@H](SC(C)(C)C)[C@@H](OC(=O)c2ccccc2)C(OC(=O)c2ccccc2)[C@H]1OC(=O)c1ccccc1 (some centres not stated),940 nM
17,CN(C)CCN(C)Cc1ccc(-c2ccc3c(Nc4ccc(F)cc4Cl)ccnc3c2)o1,120 nM
18,Cc1ccc(C)c(CC(=O)N2CCC(n3c(C)nc4ccc(F)cc43)CC2)c1,190 nM
19,NC1CCCN(Cc2ccc(-c3cccc(-c4nc5ccccc5[nH]4)c3)cc2)C1 (configuration not stated),720 nM
20,CC(=O)N(Cc1ccccc1-c1ccc(CNCCc2ccccc2)cc1)C1CCN(Cc2ccccc2)CC1,480 nM
21,CCc1c(C)nc(-n2nc(C)cc2NC(=O)CCc2ccccc2)[nH]c1=O,750 nM
22,O=C(NCCN1CCCc2ccccc21)C1CCN(c2nc(-c3ccc(Cl)cc3)no2)CC1,690 nM
23,Oc1ccc2[nH]c(-c3cccs3)nc2c1CN1CCC(N2CCCC2)CC1,640 nM

row,Compound,IC50
1,Cc1ccc(C(=O)N2CCc3cc4nccc(N5CCN6CCC[C@H]6C5)c4cc32)cc1,1100 nM
2,Cc1cc(NN=Cc2ccc([N+](=O)[O-])cc2)c2ccc(F)cc2n1,890 nM
3,N#Cc1ccc(CN2CCCN(Cc3cccc(NC(=O)c4ccc(-c5ccccc5)cc4)c3)CC2)cc1,1020 nM
4,COc1ccc(C2C(C(=O)OC3CCCC3)=C(C)NC3=C2C(=O)CCC3)cc1Br (configuration not stated),590 nM
5,Cc1ccc(C(CC(=O)Nc2nccs2)c2ccc(OC(C)C)cc2)cc1 (configuration not stated),480 nM
6,Cc1nc2ccc(-c3nc4ccc(N)cc4[nH]3)cc2[nH]1,230 nM
7,Oc1ccccc1CN1CCC2(CCCN(Cc3ccccc3F)C2)C1 (configuration not stated),680 nM
8,O=C(NC1CCCc2ccccc21)[C@@H]1CCCN1C(=O)c1ccc(O)c(-c2cccc([N+](=O)[O-])c2)c1 (some centres not stated),680 nM
9,C[C@H](Cc1ccc(OCCCCOc2ccc(C[C@@H](C)NC[C@H](O)c3cccc(Cl)c3)cc2)cc1)NC[C@H](O)c1cccc(Cl)c1,760 nM
10,CC(=O)Nc1ccc(CN2CCC(CNC(=O)c3cc(-c4cccc(Cl)c4)cs3)C2)cc1 (configuration not stated),1120 nM
11,CCCc1c(C(=O)NC2CCC(CN3CCC(c4c[nH]c5ccccc45)CC3)CC2)cnn1-c1ccc(Cl)cc1 (configuration not stated),760 nM
12,CCN(CC)CCNC(=O)c1ccc(NC(=O)c2ccc(-c3cc(NC(=O)CC4CCCC4)ccc3C)cc2)cc1,560 nM
13,CC(=O)Nc1ccc(CN2CCC(N(C)c3cc(NC(=O)c4ccc(F)cc4)ccn3)CC2)cc1,1120 nM
14,CC(C)(C(=O)NCCC1CCN(CCCCCNC(=O)/C=C/c2ccc(Cl)c(Cl)c2)CC1)c1ccc(Cl)cc1,1280 nM
15,CCOC(=O)N1CCN(CCCNc2c3ccccc3nc3ccccc23)CC1,1010 nM
16,NC(=O)C1CCN(Cc2cccc(-c3cccc(-c4nc5ccc(F)cc5[nH]4)c3)c2)CC1,850 nM
17,CC1=C(C(=O)Nc2cc3cn[nH]c3cc2F)C(c2cccc(NS(C)(=O)=O)c2)CC(=O)N1 (configuration not stated),430 nM
18,Cc1ccc(C2CCN(CCCCNC(=O)c3ccc(-c4ccc(C#N)cc4)cc3)CC2)c(O)c1,290 nM
19,CCN1CCC(N(Cc2ccc(-c3ccc(C(F)(F)F)s3)cc2)C(=O)Cn2c(CCc3cccc(F)c3F)nc(=O)c3ccccc32)CC1,930 nM
20,Cn1c(NC2=NC3(c4ccccn4)N=C(Nc4nc5ccccc5n4C)NC3(c3ccccn3)N2)nc2ccccc21 (configuration not stated),1040 nM
21,CCOC(=O)c1c(CCc2ccc(C(F)(F)F)cc2)nc2c(c1-c1ccc(C(=O)N[C@@H](C)c3ccncc3)cc1)C(=O)N1CCC[C@@H]21,920 nM
